# Target: T1, recombinant human PLK1[2-369]T210D (Homo sapiens, UniProt P53350, T210D)
# T1 construct: recombinant human PLK1[2-369]T210D; Smt (SUMO) fusion partner (N, cleaved yes); host or cells: E. coli
# Assay: PLK1 DELFIA Kinase Assay
# Assay type: biochemical
# Conditions: 50 μM ATP, 2 μM peptide substrate, 0.3 nM enzyme, 90 minutes at room temperature
# In short: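 E. coli-expressed human PLK1, cleaved from an Smt fusion after Ni2+ purification, is reacted with or without inhibitor for 90 minutes at room temperature and stopped with EDTA. Product is captured on Neutravidin plates and quantified by europium DELFIA time-resolved fluorescence.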
# T1 sequence (P53350 2-369 T210D): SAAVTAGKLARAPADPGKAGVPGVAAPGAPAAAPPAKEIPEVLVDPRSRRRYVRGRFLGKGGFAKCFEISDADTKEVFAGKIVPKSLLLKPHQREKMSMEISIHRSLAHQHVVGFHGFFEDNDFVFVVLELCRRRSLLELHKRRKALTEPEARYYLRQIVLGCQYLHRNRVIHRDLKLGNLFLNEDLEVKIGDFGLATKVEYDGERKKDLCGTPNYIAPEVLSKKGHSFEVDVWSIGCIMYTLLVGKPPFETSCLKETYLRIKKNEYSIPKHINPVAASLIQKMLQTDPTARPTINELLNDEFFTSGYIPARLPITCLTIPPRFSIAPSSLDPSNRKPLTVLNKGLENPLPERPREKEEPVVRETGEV
row,IC50 [nM],SMILES
1,< 5,"Nc1ccc(Nc2ncc3c(n2)-c2ccc(Cl)cc2NC(=S)C3)cn1 [Compound I-68, 2-[(6-aminopyridin-3-yl)amino]-9-chloro-5,7-dihydro-6H-pyrimido[5,4-d][1]benzazepine-6-thione]"
2,< 5,"Cc1nc(N2CCC(N(C)C)CC2)ccc1Nc1ncc2c(n1)-c1ccc(Cl)cc1NC(=S)C2 [Compound I-69, 9-chloro-2-({6-[4-(dimethylamino)piperidin-1-yl]-2-methylpyridin-3-yl}amino)-5,7-dihydro-6H-pyrimido[5,4-d][1]benzazepine-6-thione]"
3,5 to 25,"CN(C)CCc1cnc(C(F)(F)F)c(Nc2ncc3c(n2)-c2ccc(Cl)cc2NC(=S)C3)c1 [Compound I-70, 9-chloro-2-{[5-[2-(dimethylamino)ethyl]-2-(trifluoromethyl)pyridin-3-yl]amino}-5,7-dihydro-6H-pyrimido[5,4-d][1]benzazepine-6-thione]"
4,5 to 25,"CN(C)CCCN(C)c1ccc(Nc2ncc3c(n2)-c2ccc(Cl)cc2NC(=S)C3)cn1 [Compound I-71, 9-chloro-2-({6-[[3-(dimethylamino)propyl](methyl)amino]pyridin-3-yl}amino)-5,7-dihydro-6H-pyrimido[5,4-d][1]benzazepine-6-thione]"
5,< 5,"Cc1ncc(CCN2CCOCC2)cc1Nc1ncc2c(n1)-c1ccc(Cl)cc1NC(=S)C2 [Compound I-72, 9-chloro-2-{[2-methyl-5-(2-morpholin-4-ylethyl)pyridin-3-yl]amino}-5,7-dihydro-6H-pyrimido[5,4-d][1]benzazepine-6-thione]"
6,< 5,"Cc1nc(N2CCN(C)CC2)ccc1Nc1ncc2c(n1)-c1ccc(Cl)cc1NC(=S)C2 [Compound I-73, 9-chloro-2-{[2-methyl-6-(4-methylpiperazin-1-yl)pyridin-3-yl]amino}-5,7-dihydro-6H-pyrimido[5,4-d][1]benzazepine-6-thione]"
7,< 5,"Cc1cc(NC2CCN(C)CC2)ncc1Nc1ncc2c(n1)-c1ccc(C(F)(F)F)cc1NC(=S)C2 [Compound I-74, 2-({4-methyl-6-[(1-methylpiperidin-4-yl)amino]pyridin-3-yl}amino)-9-(trifluoromethyl)-5,7-dihydro-6H-pyrimido[5,4-d][1]benzazepine-6-thione]"
8,< 5,"Cc1nc(N(C)C2CCN(C)CC2)ccc1Nc1ncc2c(n1)-c1ccc(C(F)(F)F)cc1NC(=S)C2 [Compound I-75, 2-({2-methyl-6-[methyl(1-methylpiperidin-4-yl)amino]pyridin-3-yl}amino)-9-(trifluoromethyl)-5,7-dihydro-6H-pyrimido[5,4-d][1]benzazepine-6-thione]"
9,< 5,"Cc1nc(NCCCN(C)C)ccc1Nc1ncc2c(n1)-c1ccc(Cl)cc1NC(=S)C2 [Compound I-76, 9-chloro-2-[(6-{[3-(dimethylamino)propyl]amino}-2-methylpyridin-3-yl)amino]-5,7-dihydro-6H-pyrimido[5,4-d][1]benzazepine-6-thione]"
10,< 5,"Cc1nc(OC2CCN(C)CC2)ccc1Nc1ncc2c(n1)-c1ccc(C(F)(F)F)cc1NC(=S)C2 [Compound I-77, 2-({2-methyl-6-[(1-methylpiperidin-4-yl)oxy]pyridin-3-yl}amino)-9-(trifluoromethyl)-5,7-dihydro-6H-pyrimido[5,4-d][1]benzazepine-6-thione]"
11,< 5,"S=C1Cc2cnc(Nc3cncc(CCN4CCOCC4)c3)nc2-c2ccc(Cl)cc2N1 [Compound I-78, 9-chloro-2-{[5-(2-morpholin-4-ylethyl)pyridin-3-yl]amino}-5,7-dihydro-6H-pyrimido[5,4-d][1]benzazepine-6-thione]"
12,5 to 25,"Cc1ncc(CCCN(C)C)cc1Nc1ncc2c(n1)-c1ccc(C#N)cc1NC(=S)C2 [Compound I-79, 2-({5-[3-(dimethylamino)propyl]-2-methylpyridin-3-yl}amino)-6-thioxo-6,7-dihydro-5H-pyrimido[5,4-d][1]benzazepine-9-carbonitrile]"
13,< 5,"Cc1nc(NC2CCN(C)CC2)ccc1Nc1ncc2c(n1)-c1ccc(C3CC3)cc1NC(=S)C2 [Compound I-80, 9-cyclopropyl-2-({2-methyl-6-[(1-methylpiperidin-4-yl)amino]pyridin-3-yl}amino)-5,7-dihydro-6H-pyrimido[5,4-d][1]benzazepine-6-thione]"
14,< 5,"Cc1ccc(Nc2ncc3c(n2)-c2ccc(Cl)cc2NC(=S)C3)c(C)n1 [Compound I-81, 9-chloro-2-[(2,6-dimethylpyridin-3-yl)amino]-5,7-dihydro-6H-pyrimido[5,4-d][1]benzazepine-6-thione]"
15,5 to 25,"Cc1nc(N2CCCCC2)ccc1Nc1ncc2c(n1)-c1ccc(Cl)cc1NC(=S)C2 [Compound I-82, 9-chloro-2-[(2-methyl-6-piperidin-1-ylpyridin-3-yl)amino]-5,7-dihydro-6H-pyrimido[5,4-d][1]benzazepine-6-thione]"
16,5 to 25,"Cc1nc(N2CCOCC2)ccc1Nc1ncc2c(n1)-c1cc(CCCN(C)C)c(Cl)cc1NC(=S)C2 [Compound I-83, 9-chloro-10-[3-(dimethylamino)propyl]-2-[(2-methyl-6-morpholin-4-ylpyridin-3-yl)amino]-5,7-dihydro-6H-pyrimido[5,4-d][1]benzazepine-6-thione]"
17,< 5,"Cc1ncc(C2CCN(CCF)CC2)cc1Nc1ncc2c(n1)-c1ccc(Cl)cc1NC(=S)C2 [Compound I-84, 9-chloro-2-({5-[1-(2-fluoroethyl)piperidin-4-yl]-2-methylpyridin-3-yl}amino)-5,7-dihydro-6H-pyrimido[5,4-d][1]benzazepine-6-thione]"
18,< 5,"Cc1nc(NC2CCNCC2)ccc1Nc1ncc2c(n1)-c1ccc(Cl)cc1NC(=S)C2 [Compound I-85, 9-chloro-2-{[2-methyl-6-(piperidin-4-ylamino)pyridin-3-yl]amino}-5,7-dihydro-6H-pyrimido[5,4-d][1]benzazepine-6-thione]"
19,< 5,"Cc1nc2c(cc1Nc1ncc3c(n1)-c1ccc(C(F)(F)F)cc1NC(=S)C3)CN(C)CC2 [Compound I-86, 2-[(2,6-dimethyl-5,6,7,8-tetrahydro-1,6-naphthyridin-3-yl)amino]-9-(trifluoromethyl)-5,7-dihydro-6H-pyrimido[5,4-d][1]benzazepine-6-thione]"
20,< 5,"Cc1ncc(CCN2CCCCC2)cc1Nc1ncc2c(n1)-c1ccc(C(F)(F)F)cc1NC(=S)C2 [Compound I-87, 2-{[2-methyl-5-(2-piperidin-1-ylethyl)pyridin-3-yl]amino}-9-(trifluoromethyl)-5,7-dihydro-6H-pyrimido[5,4-d][1]benzazepine-6-thione]"
21,< 5,"Cc1nc(N(C)CCCN(C)C)ccc1Nc1ncc2c(n1)-c1ccc(C(F)(F)F)cc1NC(=S)C2 [Compound I-88, 2-({6-[[3-(dimethylamino)propyl](methyl)amino]-2-methylpyridin-3-yl}amino)-9-(trifluoromethyl)-5,7-dihydro-6H-pyrimido[5,4-d][1]benzazepine-6-thione]"
22,< 5,"Cc1ncc(CCCCN(C)C)cc1Nc1ncc2c(n1)-c1ccc(Cl)cc1NC(=S)C2 [Compound I-89, 9-chloro-2-({5-[4-(dimethylamino)butyl]-2-methylpyridin-3-yl}amino)-5,7-dihydro-6H-pyrimido[5,4-d][1]benzazepine-6-thione]"
